# Counter-ions that a name gives are not always drawn.
# Tests used:
# [1] = IV and PO pharmacokinetic studies of prodrug salts (Iab, Ibb, Icb) in the rat, with historical parent data; assay type: in vivo, Sprague-Dawley rats
# Protocol: (§1) All blood samples (0.3 mL) were colleted in microtainers containing K2EDTA (Becton Dickinson, Franklin Lakes, N.J.) and placed on chipped ice. After centrifugation, plasma was separated and stored at −20° C. until analysis. The mono-lysine salt of Iab (Form 3, Lot 1) was used for the pharmacokinetic studies. The dosing solutions of Iab were prepared in either sterile water (for IV administration in dogs and monkeys) or distilled water (for all other dose administration).
# Male Sprague-Dawley rats (300-350 g, Hilltop Lab Animals, Inc., Scottsdale, Pa.) with cannulas implanted in the jugular vein were used. The rats were fasted overnight in the PO pharmacokinetic studies. Blood samples were collected from the jugular vein.
# In the IV study, Iab was delivered at 1.4 mg/kg (free acid, or 1.1 mg/kg of IVa equivalent) as a bolus over 0.5 min (n=3).
# In the PO study, Iab was administered at 7.9 mg/kg (free acid, or 6.3 mg/kg of IVa equivalent) by oral gavage (n=3). The concentration of the dosing solution was 4.0 mg/mL, and the dosing volume was 2 mL/kg.
# The pharmacokinetic parameters of Iab and IVa were calculated by Non-Compartmental Analysis using the […]™ software program (version 4.0.2, InnaPhase Co., Philadelphia, Pa.). The Cmax and Tmax values were recorded directly from experimental observations. The AUC0-n and AUCtot values were calculated using the mixed log-linear trapezoidal summations. The total body clearance (Cl), mean residence time (MRT), and the steady state volume of distribution (Vss) were also calculated after intravenous administration. The absolute oral bioavailability (expressed as %) was estimated by taking the ratio of dose-normalized AUC values after oral doses to those after intravenous doses.
# as §1, with “Ibb” for “Iab”, “3)” for “3, Lot 1)”
# (§2) The Cmax and Tmax values were recorded directly from experimental observations. The AUC0-n and AUCtot values were calculated using the mixed log-linear trapezoidal summations. The total body clearance (Cl), mean residence time (MRT), and the steady state volume of distribution (Vss) were also calculated after intravenous administration. The absolute oral bioavailability (expressed as %) was estimated by taking the ratio of dose-normalized AUC values after oral doses to those after intravenous doses.
# In the IV study, Icb was delivered at 1.4 mg/kg (free acid, or 1.1 mg/kg of IVe equivalent) as a bolus over 0.5 min (n=3).
# In the PO study, Icb was administered at 6.9 mg/kg (free acid, or 5.6 mg/kg of IVe equivalent) by oral gavage (n=3).
# as §2
# monkey hepatocytes = experiment: Hydrolysis of prodrug in hepatocytes (monkey); assay type: in vitro ADME; conditions: monkey hepatocytes, qualitative
# Protocol: (§3) The in vitro intrinsic clearance of Ibb in hepatocytes (Clint) was calculated as follows: Clint(μL/min/million cells)=Rate/CE where Rate is the rate of metabolism in hepatocytes (pmol/min/million cells), and CE is the concentration of Ibb in the incubation. The in vitro intrinsic clearance of Icb in hepatocytes (Clint) was calculated as follows: Clint(μL/min/million cells)=Rate/CE where Rate is the rate of metabolism in hepatocytes (pmol/min/million cells), and CE is the concentration of Icb in the incubation.
# human hepatocytes = experiment: Hydrolysis of prodrug in hepatocytes (human); assay type: in vitro ADME; conditions: human hepatocytes, qualitative
# Protocol: as §3
# [2] = Stability of prodrug in fresh EDTA blood (dog); conditions: for Ibb: Ibb in fresh dog EDTA blood, 37° C., n = 2
# Protocol: (§4) The stability of Iab was studied in fresh blood and serum from rat, dog, monkey and human (n=2). The blood was collected in vacutainers containing K2EDTA (Becton Dickinson, Franklin Lakes, N.J.). The serum was collected in vacutainers containing no anticoagulant. Iab was incubated at a starting concentration of approximately 10 μM for 60-90 min at 37° C. Serial samples were taken at the pre-determined times. Aliquots of blood samples (200 μL) were first mixed with 100 μL of water followed by 400 μL of acetonitrile. The serum samples (50 μL) were added into microtainers containing K2EDTA (Becton Dickinson, Franklin Lakes, N.J.) followed by the addition of 100 μL of acetonitrile. The supernatant was analyzed for both Iab and IVa by LC/MS/MS. The stability of Ibb was studied in fresh blood and serum from rat, dog, monkey and human (n=2). The blood was collected in vacutainers containing K2EDTA (Becton Dickinson, Franklin Lakes, N.J.). The serum was collected in vacutainers containing no anticoagulant. Ibb was incubated at a starting concentration of approximately 15 μM for 90 min at 37° C. Serial samples were taken at the pre-determined times. Aliquots of blood samples (200 μL) were first mixed with 100 μL of water followed by 400 μL of acetonitrile. The serum samples (50 μL) were added into microtainers containing K2EDTA (Becton Dickinson, Franklin Lakes, N.J.) followed by the addition of 100 μL of acetonitrile. […] The stability of Icb was studied in fresh blood and serum from rat, dog, monkey and human (n=2). The blood was collected in vacutainers containing K2EDTA (Becton Dickinson, Franklin Lakes, N.J.). The serum was collected in vacutainers containing no anticoagulant. Icb was incubated at a starting concentration of approximately 10 μM for 90 min at 37° C. Serial samples were taken at the pre-determined times. Aliquots of blood samples (200 μL) were first mixed with 100 μL of water followed by 400 μL of acetonitrile. The serum samples (50 μL) were added into microtainers containing K2EDTA (Becton Dickinson, Franklin Lakes, N.J.) followed by the addition of 100 μL of acetonitrile.
# [3] = Stability (hydrolysis) of prodrug in fresh serum (rat); conditions: Ibb in fresh rat serum, 37° C., n = 2
# Protocol: as §4
compound,measurement,setting,value
"O=C(C(=O)N1CCN(C(=O)c2ccccc2)CC1)c1cn(COP(=O)(O)O)c2c(-n3ccnn3)ncc(F)c12 [Ibb, [3-[(4-benzoylpiperazin-1-yl)(oxo)acetyl]-4-fluoro-7-(1H-1,2,3-triazol-1-yl)-1H-pyrrolo[2,3-c]pyridin-1-yl]methyl dihydrogen phosphate, L-lysine salt (1:1)]",prodrug detected in plasma after oral administration,[1]; LLQ = 5 nM,< 10 nM
same,half-life,"[1]; male, Sprague-Dawley, plasma, after IV prodrug, analyte = label, read-out: t1/2 (hr), IV (converted)",0.18 h
same,Cmax,"[1]; male, Sprague-Dawley, plasma, po, 6.6 mg/kg, read-out: Cmax",8 ± 3 nM
same,Tmax,"[1]; male, Sprague-Dawley, plasma, po, 6.6 mg/kg, read-out: Tmax",15 min
same,clearance,"[1]; male, Sprague-Dawley, plasma, prodrug after IV administration, read-out: CLtot (mL/min/kg), IV",19 mL/min/kg
same,Vd,"[1]; male, Sprague-Dawley, plasma, prodrug after IV administration, read-out: Vdss (L/kg), IV",0.1 L/kg
same,hydrolysis in the presence of hepatocytes,monkey hepatocytes,No turnover was observed
same,hydrolysis in the presence of hepatocytes,human hepatocytes,hydrolyzed
same,Ibb,[2]; 0 min,13 µM
same,Ibb,[2]; 15 min,12 µM
same,Ibb,[2]; 30 min,15 µM
same,Ibb,[2]; 45 min,16 µM
same,Ibb,[2]; 60 min,13 µM
same,Ibb,[2]; 90 min,16 µM
same,conversion of prodrug to parent in blood containing EDTA,"[2]; dog blood, 37°C, 60 min (Iab) or 90 min (Ibb, Icb)",< 2%
same,Ibb,[3]; 0 min,12 µM
same,Ibb,[3]; 15 min,9.4 µM
same,Ibb,[3]; 30 min,9.2 µM
same,Ibb,[3]; 45 min,9.4 µM
same,Ibb,[3]; 60 min,9.3 µM
same,Ibb,[3]; 90 min,9.0 µM

# From patent publication US20150315218A1, “SALTS OF PRODRUGS OF PIPERAZINE AND SUBSTITUTED PIPERIDINE ANTIVIRAL AGENTS” (Bristol-Myers Squibb Company, priority 2004, published 2015)
